Reference: patent publication US9079866B2, “Flap modulators” (JANSSEN PHARMACEUTICA NV, priority 2013, dated 2015)
Counter-ions that a name gives are not always drawn.

What was measured:
[1] = target: human FLAP (Homo sapiens (Human), UniProt P20292); test: FLAP binding assay (HTRF format); details: human FLAP wild type, HTRF format; average of two plates, duplicates
Procedure, shortened: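 HTRF ratio read-out; two independent plates, samples in duplicate on each, values averaged across plates.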

[2] = tested on: leukotriene pathway in human whole blood (LTB4 levels); test: Human whole blood assay (A23187-stimulated LTB4); type: cell-based; details: Homo sapiens, human whole blood diluted 1:1 in RPMI, A23187-stimulated LTB4; read-out: LTB4 IC50 1:1
Procedure, shortened: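 Heparinised human whole blood, diluted 1:1 in RPMI, was pre-incubated with test compounds for 15 min at 37° Celsius, then stimulated with A23187 (7 μg/mL) for 30 min at 37° Celsius. Plasma LTB4 was measured by immunoassay kit; IC50 from 4-parameter fit; single replicate, at least one healthy donor.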

Sequence of human FLAP (P20292 whole entry): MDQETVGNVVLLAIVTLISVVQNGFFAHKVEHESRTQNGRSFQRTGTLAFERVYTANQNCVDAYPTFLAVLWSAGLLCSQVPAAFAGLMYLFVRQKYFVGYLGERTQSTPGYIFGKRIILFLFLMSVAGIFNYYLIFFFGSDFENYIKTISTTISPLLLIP

Row | SMILES | Ki [1] [nM] | IC50 [2] [nM]
1 | CC(CO)(CO)NS(=O)(=O)c1ccccc1-c1ccc(-c2cnc(N)cn2)c(F)c1 [Example 147, 4′-(5-Aminopyrazin-2-yl)-3′-fluoro-N-[2-hydroxy-1-(hydroxymethyl)-1-methylethyl]biphenyl-2-sulfonamide] | 1 | 102
2 | CC(C)[C@@H](CO)NS(=O)(=O)c1ccccc1-c1ccc(-c2cnc(N)cn2)c(F)c1 [Example 148, (S)-4′-(5-Aminopyrazin-2-yl)-3′-fluoro-N-(1-hydroxy-3-methylbutan-2-yl)-[1,1′-biphenyl]-2-sulfonamide] | 2 | 8
3 | CC(C)(C)[C@@H](CO)NS(=O)(=O)c1ccccc1-c1ccc(-c2cnc(N)cn2)c(F)c1 [Example 149, (S)-4′-(5-Aminopyrazin-2-yl)-3′-fluoro-N-(1-hydroxy-3,3-dimethylbutan-2-yl)-[1,1′-biphenyl]-2-sulfonamide] | 5 | 82
4 | CC(C)(C)[C@H](CO)NS(=O)(=O)c1ccccc1-c1ccc(-c2cnc(N)cn2)c(F)c1 [Example 150, (R)-4′-(5-Aminopyrazin-2-yl)-3′-fluoro-N-(1-hydroxy-3,3-dimethylbutan-2-yl)-[1,1′-biphenyl]-2-sulfonamide] | 1 | 11
5 | CC(C)(C)OC(=O)NCCNS(=O)(=O)c1ccccc1-c1ccc(-c2cnc(N)cn2)c(F)c1 [Example 151, tert-Butyl [2-({[4′-(5-aminopyrazin-2-yl)-3′-fluorobiphenyl-2-yl]sulfonyl}amino)ethyl]carbamate] | 1 | 114
6 | NCCNS(=O)(=O)c1ccccc1-c1ccc(-c2cnc(N)cn2)c(F)c1 [Example 152, N-(2-Aminoethyl)-4′-(5-aminopyrazin-2-yl)-3′-fluorobiphenyl-2-sulfonamide] | 81 | 537
7 | CC[C@@H](CO)NS(=O)(=O)c1ccccc1-c1ccc(-c2cnc(N)cn2)c(F)c1 [Example 153, (S)-4′-(5-Aminopyrazin-2-yl)-3′-fluoro-N-(1-hydroxybutan-2-yl)-[1,1′-biphenyl]-2-sulfonamide] | 3 | 7
8 | Nc1cnc(-c2ccc(-c3ccccc3S(=O)(=O)N[C@H]3CCNC3)cc2F)cn1 [Example 154, (S)-4′-(5-Aminopyrazin-2-yl)-3′-fluoro-N-(pyrrolidin-3-yl)-[1,1′-biphenyl]-2-sulfonamide] | 29 | 1040
9 | CC(=O)NCCNS(=O)(=O)c1ccccc1-c1ccc(-c2cnc(N)cn2)c(F)c1 [Example 155, N-[2-({[4′-(5-Aminopyrazin-2-yl)-3′-fluorobiphenyl-2-yl]sulfonyl}amino)ethyl]acetamide] | 12 | 103
10 | C[C@H](NS(=O)(=O)c1ccccc1-c1ccc(-c2cnc(N)cn2)c(F)c1)C(=O)O [Example 156, (S)-2-(4′-(5-Aminopyrazin-2-yl)-3′-fluoro-[1,1′-biphenyl]-2-ylsulfonamido)propanoic acid] | 351 | > 10000
11 | NC(=O)NCCNS(=O)(=O)c1ccccc1-c1ccc(-c2cnc(N)cn2)c(F)c1 [Example 157, 4′-(5-Aminopyrazin-2-yl)N—N-[2-(carbamoylamino)ethyl]-3′-fluorobiphenyl-2-sulfonamide] | 10 | 1840
12 | Nc1cnc(-c2ccc(-c3ccccc3S(=O)(=O)N[C@H]3c4ccccc4C[C@@H]3O)cc2F)cn1 [Example 158, 4′-(5-Aminopyrazin-2-yl)-3′-fluoro-N-((1S,2S)-2-hydroxy-2,3-dihydro-1H-inden-1-yl)-[1,1′-biphenyl]-2-sulfonamide] | 1 | 1
13 | Nc1cnc(-c2ccc(-c3ccccc3S(=O)(=O)N[C@@H]3c4ccccc4C[C@H]3O)cc2F)cn1 [Example 159, 4′-(5-Aminopyrazin-2-yl)-3′-fluoro-N-((1R,2R)-2-hydroxy-2,3-dihydro-1H-inden-1-yl)-[1′,1′-biphenyl]-2-sulfonamide] | 1 | 1
14 | Nc1cnc(-c2ccc(-c3ccccc3S(=O)(=O)N[C@H]3CCCC[C@@H]3O)cc2F)cn1 [Example 162, 4′-(5-Aminopyrazin-2-yl)-3′-fluoro-N-((1S,2S)-2-hydroxycyclohexyl)-[1,1′-biphenyl]-2-sulfonamide] | 5 | 122
15 | Nc1cnc(-c2ccc(-c3ccccc3S(=O)(=O)Nc3ccc(C(F)(F)F)nc3)cc2F)cn1 [Example 163, 4′-(5-Aminopyrazin-2-yl)-3′-fluoro-N-[6-(trifluoromethyl)pyridin-3-yl]biphenyl-2-sulfonamide] | 1 | 595
16 | Nc1cnc(-c2ccc(-c3ccccc3S(=O)(=O)N3CCC(c4c[nH]cn4)CC3)cc2F)cn1 [Example 164, 5-(3-Fluoro-2′-{[4-(1H-imidazol-4-yl)piperidin-1-yl]sulfonyl}biphenyl-4-yl)pyrazin-2-amine] | 1 | 333
17 | Cc1ncc(CNS(=O)(=O)c2ccccc2-c2ccc(-c3cnc(N)cn3)c(F)c2)c(N)n1 [Example 165, N-[(4-Amino-2-methylpyrimidin-5-yl)methyl]-4′-(5-aminopyrazin-2-yl)-3′-fluorobiphenyl-2-sulfonamide] | 18 | 879

Row | SMILES | Ki [1] [nM] | IC50 [2] [nM]
18 | COc1cc(NS(=O)(=O)c2ccccc2-c2ccc(-c3cnc(N)cn3)c(F)c2)nc(OC)n1 [Example 166, 4′-(5-Aminopyrazin-2-yl)-N-(2,6-dimethoxypyrimidin-4-yl)-3′-fluorobiphenyl-2-sulfonamide] | 164 | 4460
19 | Cc1cnc(NS(=O)(=O)c2ccccc2-c2ccc(-c3cnc(N)cn3)c(F)c2)cn1 [Example 167, 4′-(5-Aminopyrazin-2-yl)-3′-fluoro-N-(5-methylpyrazin-2-yl)biphenyl-2-sulfonamide] | 47 | 442
20 | CC(C)C[C@H](NS(=O)(=O)c1ccccc1-c1ccc(-c2cnc(N)cn2)c(F)c1)C(N)=O [Example 168, (S)-2-(4′-(5-Aminopyrazin-2-yl)-3′-fluoro-[1,1′-biphenyl]-2-ylsulfonamido)-4-methylpentanamide] | 14 | 135
21 | N#CCCN(C1CC1)S(=O)(=O)c1ccccc1-c1ccc(-c2cnc(N)cn2)c(F)c1 [Example 172, 4′-(5-Aminopyrazin-2-yl)-N-(2-cyanoethyl)-N-cyclopropyl-3′-fluorobiphenyl-2-sulfonamide] | 4 | 20
22 | CC1(NS(=O)(=O)c2ccccc2-c2ccc(-c3cnc(N)cn3)c(F)c2)COC1 [Example 173, 4′-(5-Aminopyrazin-2-yl)-3′-fluoro-N-(3-methyloxetan-3-yl)biphenyl-2-sulfonamide] | 1 | 17
23 | N#CCCN1CCN(S(=O)(=O)c2ccccc2-c2ccc(-c3cnc(N)cn3)c(F)c2)CC1 [Example 174, 3-(4-{[4′-(5-Aminopyrazin-2-yl)-3′-fluorobiphenyl-2-yl]sulfonyl}piperazin-1-yl)propanenitrile] | 2 | 23
24 | COC[C@H](C)NS(=O)(=O)c1ccccc1-c1ccc(-c2cnc(N)cn2)c(F)c1 [Example 175, (S)-4′-(5-Aminopyrazin-2-yl)-3′-fluoro-N-(1-methoxypropan-2-yl)-[1,1′-biphenyl]-2-sulfonamide] | 1 | 17
25 | CN(C)S(=O)(=O)Nc1ccccc1-c1ccc(-c2cnc(N)cn2)c(F)c1 [Example 182, N′-[4′-(5-Aminopyrazin-2-yl)-3′-fluorobiphenyl-2-yl]-N,N-dimethylsulfamide] | 20 | 217
26 | Nc1cnc(-c2ccc(-c3ccccc3NS(=O)(=O)N3CCOCC3)cc2F)cn1 [Example 183, N-[4′-(5-Aminopyrazin-2-yl)-3′-fluorobiphenyl-2-yl]morpholine-4-sulfonamide] | 34 | 130
27 | Nc1cnc(-c2ccc(-c3ccccc3S(=O)(=O)N3CC[C@@H](O)C3)cc2F)cn1 [Example 185, (3R)-1-{[4′-(5-Aminopyrazin-2-yl)-3′-fluorobiphenyl-2-yl]sulfonyl}pyrrolidin-3-ol trifluoroacetic acid salt] | 10 | 51
28 | Nc1cnc(-c2ccc(-c3ccccc3SC(F)(F)F)cc2F)cn1 [Example 189, 5-{3-Fluoro-2′-[(trifluoromethyl)sulfanyl]biphenyl-4-yl}pyrazin-2-amine] | 173 | 1650
29 | CC(C)(C)Sc1ccccc1-c1ccc(-c2cnc(N)cn2)c(F)c1 [Example 190, 5-[2′-(tert-Butylsulfanyl)-3-fluorobiphenyl-4-yl]pyrazin-2-amine] | 58 | 471
30 | CCCS(=O)(=O)c1ccccc1-c1ccc(-c2cnc(N)cn2)c(F)c1 [Example 192, 5-[3-Fluoro-2′-(propylsulfonyl)biphenyl-4-yl]pyrazin-2-amine] | 58 | 171
31 | CC(C)CS(=O)(=O)c1ccccc1-c1ccc(-c2cnc(N)cn2)c(F)c1 [Example 193, 5-{3-Fluoro-2′-[(2-methylpropyl)sulfonyl]biphenyl-4-yl}pyrazin-2-amine] | 26 | 144
32 | Nc1cnc(-c2ccc(-c3ccccc3S(=O)(=O)C3CCCC3)cc2F)cn1 [Example 195, 5-[2′-(Cyclopentylsulfonyl)-3-fluorobiphenyl-4-yl]pyrazin-2-amine] | 3 | 93
33 | Nc1cnc(-c2ccc(-c3ccccc3S(=O)(=O)C3CCC3)cc2F)cn1 [Example 196, 5-[2′-(Cyclobutylsulfonyl)-3-fluorobiphenyl-4-yl]pyrazin-2-amine] | 10 | 104
34 | Nc1cnc(-c2ccc(-c3ccccc3S(=O)(=O)C3CC3)cc2F)cn1 [Example 197, 5-[2′-(Cyclopropylsulfonyl)-3-fluorobiphenyl-4-yl]pyrazin-2-amine] | 10 | 83
